Bases are written 5' to 3'; sugars and linkages follow in the same order, as letters with counts (s phosphorothioate, o phosphodiester; PS: all linkages phosphorothioate). The collection does not say whether C is 5-methylated. l = locked nucleic acid (LNA); d = 2'-deoxy (DNA)

The target of this series is Tau. Description: rat primary cortical neurons, FLIPR, 25 uM ASO.
For “TCCAAAACATTCTCACCAAA (sugars l4 d14 l2, PS)”, the calcium oscillation score was 85.7 % of control. Then GACCCTTTTTCTTAAC (sugars l4 d10 l2, PS), with 59.1 % of control. Then “CAATTCTCATTTCAACCTTC (sugars l2 d14 l4, PS)”, with 54.1 % of control; and “CTAATTACATTTTTTCTTT (sugars l4 d11 l4, PS)”, with 62.6 % of control; and “ATGAGCACTAACTCTAAGTA (sugars l3 d14 l3, PS)”, with 4.76 % of control.

As to “CAACTCAACATTACCCTTA (sugars l4 d13 l2, PS)”, the calcium oscillation score was 81.1 % of control. Then “TATACAGTTGGCCCTACCAT (sugars l3 d14 l3, PS)”, with 16.7 % of control. Then AGCCACTGTTGCCACA (sugars l2 d12 l2, PS), with 39.3 % of control.

Consider “GTTATACAGTTGGCCCTACC (sugars l3 d14 l3, PS)”, for which the calcium oscillation score was 14.3 % of control. Then “TTCGAAACCAAGGTCCCACC (sugars l3 d14 l3, PS)”, with 27.5 % of control; and “ATTTCCAAATTCACTTTTAC (sugars lldlldddddddddlddlll, PS)”, with 35.4 % of control. As for “CCACCATACTTGACTTCT (sugars l2 d14 l2, PS)”, the calcium oscillation score is 76.8 % of control. Regarding “CCACCATACTTGACTTC (sugars l3 d12 l2, PS)”, the calcium oscillation score is 91.6 % of control. For “TGCACCCACTTTCCTAAT (sugars l4 d12 l2, PS)”, the calcium oscillation score is 56.2 % of control. Then “TTATTTCCAAATTCACTTTT (sugars lldllddddddddddldlll, PS)”, with 81 % of control; and “TATTTCCAAATTCACTTTTA (sugars llldlddddddddddldlll, PS)”, with 129 % of control; and “TCAACATTACCCTTAAATAT (sugars l4 d13 l3, PS)”, with 82.4 % of control. On to “TCCAAAGCATCAAATCC (sugars l3 d11 l3, PS)”, for which the calcium oscillation score was 85.5 % of control. Then GGATGTTGCCTAATGA (sugars l3 d10 l3, PS), with 0 % of control; and “GCTTTCCAATTCCCCAT (sugars l2 d12 l3, PS)”, with 94.5 % of control; and TCGCTTCCAGTCCC (sugars l3 d8 l3, PS), with 142 % of control. Take “CTAGCCCACCCATCAATTTG (sugars l3 d14 l3, PS)”: the calcium oscillation score was 0 % of control. Regarding “CCCCATTCAGATCTATC (sugars l2 d13 l2, PS)”, the calcium oscillation score is 98.8 % of control. Then “GATTAACCAATTAACCGAAC (sugars l3 d14 l3, PS)”, with 98.8 % of control; and AACCAATTAACCGAAC (sugars l3 d10 l3, PS), with 138 % of control; and “GTTGCCTAATGAGCCACACT (sugars l3 d14 l3, PS)”, with 59.8 % of control. Then “TTTTCAAACACACCTTCATT (sugars l2 d14 l4, PS)”, with 98.6 % of control; and “AAAATCCTTAATTTAACCAC (sugars l4 d12 l4, PS)”, with 64 % of control; and “ACTCAACATTACCCTTAAAT (sugars l4 d14 l2, PS)”, with 71.5 % of control. Then “ATTTCCAAATTCACTTTTAC (sugars llddldldddddddddllll, PS)”, with 143 % of control; and GCAACAATCCAACCAC (sugars l2 d10 l4, PS), with 76.3 % of control; and “ACCTTTTTCCATCTTACT (sugars l4 d12 l2, PS)”, with 68.4 % of control. For the sequence “CTCAGCTCTTCCATAAGCAG (sugars l3 d14 l3, PS)”, the calcium oscillation score is 40.3 % of control. Turning to “ACTTTATTTCCAAATTCACTTTTAC (sugars l3 d18 l4, PS)”, the calcium oscillation score is 35.4 % of control. Take TTTATAGGTGCATAGT (sugars l2 d10 l4, PS): the calcium oscillation score is 0 % of control. Then “TTCTAGTTATACAGTTGGCC (sugars l3 d14 l3, PS)”, with 26.2 % of control; and “TGATGGATGTTGCCTAATGA (sugars l3 d14 l3, PS)”, with 0 % of control; and “CTTTTGAACCCATTCCA (sugars l3 d12 l2, PS)”, with 82.2 % of control. Take CTCGTCAGCTAGCGTG (sugars l3 d10 l3, PS): the calcium oscillation score is 27.1 % of control.

In the case of TAGGAGAGGAAGGTGG (sugars l3 d10 l3, PS), the calcium oscillation score was 3.7 % of control. On to TCTGTCTTGGCTTTG (sugars l3 d9 l3, PS), for which the calcium oscillation score is 40.6 % of control.

Regarding “GATATTCATTCCCTCAC (sugars l2 d11 l4, PS)”, the calcium oscillation score was 57.2 % of control. In the case of “CTTTTTCTTGTTCTAACC (sugars l3 d11 l4, PS)”, the calcium oscillation score is 62.3 % of control. Then TTACAAGCATTTCAAG (sugars l3 d10 l3, PS), with 36.8 % of control; and “CTTTATTTCCAAATTCACTT (sugars l5 d10 l5, PS)”, with ≥ 200 % of control; and “ACAGGAGAGCCATTTCCCAA (sugars l3 d14 l3, PS)”, with 42.9 % of control. For “AGAGACCACATTATCATCCA (sugars l3 d14 l3, PS)”, the calcium oscillation score is 26.2 % of control. Consider “AACTCTAAGTAGACCCTGGC (sugars l3 d14 l3, PS)”, for which the calcium oscillation score is 14.3 % of control. Then CAACTGGTTTGTAGAC (sugars l3 d10 l3, PS), with 42.9 % of control. In the case of TACCCCATTTTTGACA (sugars l3 d11 l2, PS), the calcium oscillation score was 60.9 % of control. Consider “GCTTTTCCCAATTATTA (sugars l4 d11 l2, PS)”, for which the calcium oscillation score was 62 % of control. “TAACTCAAATCAATTCTCAT (sugars l4 d12 l4, PS)”: the calcium oscillation score is 63.9 % of control. Then ATCAGAGGGTCTGAGC (sugars l3 d10 l3, PS), with 59.3 % of control; and GCCCTAAAGTCCCAG (sugars l3 d9 l3, PS), with 34.3 % of control. Then “TTTCCCCATTTATCCTTC (sugars l2 d14 l2, PS)”, with 49.4 % of control; and “ACTTTATTTCCAAATTCACT (sugars l4 d11 l5, PS)”, with 115 % of control.

For the sequence “ACTTTATCCCTCCATGAT (sugars l3 d11 l4, PS)”, the calcium oscillation score is 47.4 % of control. For the sequence “GTCCAAACTTTTACTCT (sugars l4 d11 l2, PS)”, the calcium oscillation score was 75.7 % of control. Consider TGGATATAGTTAAGGC (sugars l4 d9 l3, PS), for which the calcium oscillation score is 107 % of control.

For “AACCATTAACTGCCTAT (sugars l4 d10 l3, PS)”, the calcium oscillation score was 53 % of control. Then “ATTTCCAAATTCACTTTTAC (sugars l4 d11 l5, PS)”, with 136 % of control; and “TTTTAACTCCCAACTCTTT (sugars l2 d13 l4, PS)”, with 99.7 % of control; and “CCACCCTAACACAATCA (sugars l2 d12 l3, PS)”, with 94 % of control. Then “CTTTATTTCCAAATTCACTT (sugars l1 d17 l2, PS)”, with 179 % of control. As for “ACCTCTTAGTCATCTTCC (sugars l2 d13 l3, PS)”, the calcium oscillation score is 74.4 % of control. Regarding “CCCTCACTTTTTATTCAAC (sugars l2 d14 l3, PS)”, the calcium oscillation score is 76 % of control. “ATTTCTCTAATTGTCCA (sugars l4 d10 l3, PS)”: the calcium oscillation score was 46.8 % of control.

The record behind these values is the OligoGym collection.
